Numbers after ± are expanded uncertainties.
Assay: excess molar enthalpy (molar enthalpy of mixing); xn = mol fraction of the nth substance listed
Conditions: 303.15 K, 101 kPa, Liquid

BrCBr [dibromomethane] + C[S+](C)[O-]
Conditions | excess molar enthalpy [kcal/mol]
x1 = 0.062 | -0.0507 ± 0.00239
x1 = 0.1162 | -0.0856 ± 0.00359
x1 = 0.2682 | -0.175 ± 0.00669
x1 = 0.3407 | -0.201 ± 0.00741
x1 = 0.4342 | -0.227 ± 0.00837
x1 = 0.503 | -0.24 ± 0.00884
x1 = 0.5251 | -0.242 ± 0.00884
x1 = 0.6466 | -0.228 ± 0.00837
x1 = 0.7285 | -0.202 ± 0.00765
x1 = 0.8234 | -0.152 ± 0.00574
x1 = 0.8934 | -0.103 ± 0.00406

BrCBr [dibromomethane] + c1ccccc1
Conditions | excess molar enthalpy [kcal/mol]
x1 = 0.0931 | 0.00956 ± 0.000956
x1 = 0.253 | 0.0196 ± 0.00143
x1 = 0.3416 | 0.0241 ± 0.00143
x1 = 0.4618 | 0.0284 ± 0.00167
x1 = 0.5464 | 0.0318 ± 0.00167
x1 = 0.6705 | 0.0311 ± 0.00167
x1 = 0.7405 | 0.0304 ± 0.00167
x1 = 0.8394 | 0.0237 ± 0.00143
x1 = 0.9506 | 0.0098 ± 0.000956

BrCBr [dibromomethane] + O=C1CCCN1
Conditions | excess molar enthalpy [kcal/mol]
x1 = 0.0955 | -0.0918 ± 0.00382
x1 = 0.151 | -0.134 ± 0.00526
x1 = 0.2158 | -0.177 ± 0.00669
x1 = 0.2999 | -0.216 ± 0.00813
x1 = 0.4044 | -0.246 ± 0.00908
x1 = 0.5247 | -0.241 ± 0.00884
x1 = 0.613 | -0.22 ± 0.00813
x1 = 0.7203 | -0.174 ± 0.00669
x1 = 0.7913 | -0.127 ± 0.00502
x1 = 0.8401 | -0.0968 ± 0.00382
x1 = 0.9084 | -0.0507 ± 0.00239

BrCBr [dibromomethane] + CO
Conditions | excess molar enthalpy [kcal/mol]
x1 = 0.1506 | 0.0433 ± 0.00406
x1 = 0.2779 | 0.0978 ± 0.00765
x1 = 0.3148 | 0.113 ± 0.00837
x1 = 0.4026 | 0.138 ± 0.01
x1 = 0.504 | 0.153 ± 0.011
x1 = 0.6195 | 0.169 ± 0.012
x1 = 0.7224 | 0.187 ± 0.0131
x1 = 0.921 | 0.154 ± 0.011
x1 = 0.9515 | 0.111 ± 0.00837
x1 = 0.9781 | 0.0583 ± 0.00502

Reference: the NIST ThermoML archive (doi:10.1021/je9005882)
